Where two headings read alike, the source gives them in different places. Where a SMILES comes first, the peptide text is derived from it. Where no end group is shown, it is not given here.
Test: Visible dissolution of peptides in DMSO / 0.9% NaCl for pool formulation
Assay type: physicochemical
Details: for Visual solubility (appearance of the peptide solution): Peptide Synthesis Engineering Run Batch for Sample GGGGG, visual appearance of the peptide solution (Clear / Semi Cloudy / Cloudy)
Procedure: Groups of peptides are selected and pooled. Up to four (4) pools with not more than (NMT) five (5) peptides in each pool were prepared. Each peptide was dissolved in 5.538% (v/v) DMSO followed by 0.9% NaCl solution, at a concentration of each peptide at 0.4158 mg/mL. Peptides which were visibly dissolved were accepted for that group's pool. Upon successful pooling of all peptides within a group, the pool was filtered through a 0.2 μm Nylon filter. Peptides were shipped in sterile tubes and labeled with Pool name, lot #, components, manufacturing data, quantity/concentration and storage conditions.

[1] = Peptide synthesis engineering run batch for sample FFFFF, appearance of the solution
[2] = Peptide synthesis engineering run batch for sample DDDDD_2020, appearance of the solution

| Compound | Solubility [2] | Visual solubility (appearance of the peptide solution) | other results |
| --- | --- | --- | --- |
| NSASMKQAL [FFFFF.47] |  |  | Solubility [1]: Clear |
| PLNPPASTAFSQEPHSGSPA [FFFFF.24] |  |  | Solubility [1]: Clear |
| QELSPEKLKSWGGSLLGPWLSSGLKPLK [DDDDD.18] | Clear |  |  |
| RSLTLEPDPIVVPGNVTLSVVG [GGGGG.33] |  |  | Stability: Clear |
| CC[C@H](C)[C@H](NC(=O)[C@H](C)NC(=O)CNC(=O)[C@H](CC(C)C)NC(=O)[C@H](CC(C)C)NC(=O)[C@H](CC(=O)O)NC(=O)[C@H](CS)NC(=O)[C@H](CO)NC(=O)[C@H](CCC(=O)O)NC(=O)[C@H](C)NC(=O)[C@@H]1CCCN1C(=O)[C@@H](N)CO)C(=O)N[C@@H](CCC(N)=O)C(=O)N[C@H](C(=O)N[C@@H](CS)C(=O)N[C@H](C(=O)N[C@@H](CCCNC(=N)N)C(=O)N[C@@H](CCCCN)C(=O)N[C@@H](CO)C(=O)N[C@@H](CC(C)C)C(=O)NCC(=O)O)[C@@H](C)CC)[C@@H](C)O [GGGGG.11] (H-SPAESCDLLGAIQTCIRKSLG-OH; N-terminus and C-terminus assumed) |  | Clear |  |
| NSLQNQALQTLQERLHEADAT [GGGGG.20] |  | Clear |  |
| MSKPKWPLEDEISKPEVP [DDDDD.3] | Clear |  |  |
| RRWRKLYRANSHLFQAKRFN [DDDDD.24] | Clear |  |  |
| KLESTVGSPKKPLSDLGKLS [FFFFF.22] |  |  | Solubility [1]: Clear |
| RVLIPDLQL [GGGGG.42] |  | Clear |  |
| CC(C)C[C@H](NC(=O)[C@H](CS)NC(=O)[C@H](CS)NC(=O)[C@H](CCC(=O)O)NC(=O)[C@H](Cc1c[nH]c2ccccc12)NC(=O)[C@H](Cc1ccccc1)NC(=O)[C@H](CCC(N)=O)NC(=O)[C@H](C)N)C(=O)O [FFFFF.41] (H-AQFWECCL-OH; N-terminus and C-terminus assumed) |  |  | Solubility [1]: Cloudy |
| LLLQEEEL [FFFFF.42] |  |  | Solubility [1]: Clear |
| FGALHEDANKVIKPTSSNTA [DDDDD.5] | Clear |  |  |
| LSPYPEHL [FFFFF.50] |  |  | Solubility [1]: Clear |
| LGIGGLQDL [FFFFF.49] |  |  | Solubility [1]: Clear |
| STAPAEATL [GGGGG.44] |  | Clear |  |
| MSYELKCAQEL [GGGGG.49] |  | Clear |  |
| SLLLQEEEL [FFFFF.39] |  |  | Solubility [1]: Cloudy |
| TSAPGSSRLAA [GGGGG.47] |  | Clear |  |
| GQRRDRLLTVQALSGL [DDDDD.14] | Clear |  |  |
| LAPGQPFL [GGGGG.50] |  | Clear |  |
| EDTGQDMLALFLRTNRQAAK [FFFFF.8] |  |  | Solubility [1]: Clear |
| FQSLCQAPPLLKDKVLTALE [GGGGG.8] |  | Clear |  |
| CC(C)C[C@H](NC(=O)[C@@H](NC(=O)[C@H](Cc1c[nH]c2ccccc12)NC(=O)[C@H](C)NC(=O)[C@H](C)NC(=O)[C@@H](NC(=O)[C@H](Cc1ccccc1)NC(=O)[C@H](CCCCN)NC(=O)[C@H](C)N)C(C)C)[C@@H](C)O)C(=O)N[C@@H](CCCCN)C(=O)N[C@@H](C)C(=O)N[C@@H](C)C(=O)N[C@@H](C)C(=O)O [DDDDD.46] | Clear |  |  |
| YSGIQESSSASPLSIKKCPI [GGGGG.29] |  | Clear |  |
| GALPVASPASL [GGGGG.45] |  | Clear |  |

| Compound | Solubility [2] | Visual solubility (appearance of the peptide solution) | other results |
| --- | --- | --- | --- |
| MILASPRYVDQVTEFLQQKLK [FFFFF.18] |  |  | Solubility [1]: Clear |
| KDKIWLRRTKPSKHQYQICLAIDDSSSM [DDDDD.17] | Clear |  |  |
| FEAPGFNTTTA [DDDDD.45] | Clear |  |  |
| AAIQEKKEI [GGGGG.39] |  | Clear |  |
| FETTTGFDPHSGTPLSDHEAL [GGGGG.7] |  | Clear |  |
| VGRAWDAITDHLVGLCISKSP [FFFFF.19] |  |  | Solubility [1]: Clear |
| YKTDLHSL [FFFFF.37] |  |  | Solubility [1]: Clear |
| TYPEADSFPSWAAAHRKGSS [DDDDD.20] |  |  | Solubility: Clear |
| CSCC[C@H](NC(=O)[C@H](CC(C)C)NC(=O)[C@@H](NC(=O)[C@H](CCSC)NC(=O)[C@H](CC(C)C)NC(=O)[C@@H]1CCCN1C(=O)[C@H](C)NC(=O)[C@H](Cc1ccc(O)cc1)NC(=O)[C@@H]1CCCN1C(=O)[C@H](CC(=O)O)NC(=O)CNC(=O)[C@@H](NC(=O)CNC(=O)CNC(=O)[C@H](CC(C)C)NC(=O)CNC(=O)[C@H](CO)NC(=O)[C@H](Cc1ccc(O)cc1)NC(=O)[C@@H]1CCCN1)C(C)C)C(C)C)C(=O)N[C@@H](CS)C(=O)N[C@@H](CCCNC(=N)N)C(=O)N[C@H](C(=O)N[C@@H](CS)C(=O)N[C@@H](CC(C)C)C(=O)N[C@@H](CCC(=O)O)C(=O)N[C@@H](CC(=O)O)C(=O)O)C(C)C [GGGGG.17] (H-PYSGLGGVGDPYAPLMVLMCRVCLED-OH; N-terminus and C-terminus assumed) |  |  | Stability: Semi |
| DSSIPSAATL [DDDDD.42] | Clear |  |  |
| VLGTSAPGSSRLAAVDLGG [GGGGG.2] |  | Clear |  |
| ASSQAGTVTL [DDDDD.38] | Clear |  |  |
| AQSRSSPTL [DDDDD.36] | Clear |  |  |
| SQAGTVTL [DDDDD.31] | Clear |  |  |
| SAVMQEEI [GGGGG.38] |  | Cloudy |  |
| SSCMGGMNQRPILTIITLED [DDDDD.9] |  |  | Solubility: Cloudy |
| CC[C@H](C)[C@H](NC(=O)[C@H](CO)NC(=O)[C@H](CC(=O)O)NC(=O)[C@H](CCC(=O)O)NC(=O)[C@H](C)NC(=O)CN)C(=O)N[C@@H](CC(=O)O)C(=O)N[C@@H](CO)C(=O)N1CCC[C@H]1C(=O)N[C@@H](CO)C(=O)N[C@@H](C)C(=O)N[C@@H](CS)C(=O)N1CCC[C@H]1C(=O)N[C@@H](CC(C)C)C(=O)N[C@@H](CO)C(=O)N[C@H](C(=O)NCC(=O)N[C@@H](CS)C(=O)N1CCC[C@H]1C(=O)N[C@@H](C)C(=O)N[C@@H](CC(C)C)C(=O)O)[C@@H](C)O [GGGGG.21] (H-GAEDSIDSPSACPLSTGCPAL-OH; N-terminus and C-terminus assumed) |  | Clear |  |
| ARPPGGSGPLRVLIPDLQL [GGGGG.3] |  | Clear |  |
| KNPQMGDPGSLQPKSAETMNNIDRLRME [DDDDD.6] | Clear |  |  |
| NQPKIGGPLGTGAFEAPGFNTTTATLGF [DDDDD.4] | Clear |  |  |
| CC(C)C[C@H](NC(=O)[C@H](CS)NC(=O)[C@H](CS)NC(=O)[C@H](CCC(=O)O)NC(=O)[C@H](Cc1c[nH]c2ccccc12)NC(=O)[C@H](Cc1ccccc1)NC(=O)[C@H](CCC(N)=O)NC(=O)[C@H](C)NC(=O)[C@@H](N)CC(C)C)C(=O)O [FFFFF.38] (H-LAQFWECCL-OH; N-terminus and C-terminus assumed) |  |  | Solubility [1]: Cloudy |
| STAPAEATLPKPGEAEAP [GGGGG.16] |  | Clear |  |
| TWHRGDAL [DDDDD.34] | Clear |  |  |
| YIHTSVSQDFSQSVPGTTSSPL [FFFFF.10] |  |  | Solubility [1]: Clear |
| RFIGPLPREGSVGSTSDYVSQS [GGGGG.22] |  | Clear |  |
| DPRLVIFSGCATRLFEA [DDDDD.11] | Cloudy |  |  |

| Compound | Solubility [2] | Visual solubility (appearance of the peptide solution) | other results |
| --- | --- | --- | --- |
| NSLTSSVL [FFFFF.45] |  |  | Solubility [1]: Clear |
| HKDAVTCVNFSSSGHLLASGSR [FFFFF.29] |  |  | Solubility [1]: Clear |
| CC(C)C[C@H](NC(=O)[C@@H](NC(=O)[C@H](Cc1c[nH]c2ccccc12)NC(=O)[C@H](C)NC(=O)[C@H](C)NC(=O)[C@@H](NC(=O)[C@H](Cc1ccccc1)NC(=O)[C@H](CCCCN)NC(=O)[C@H](C)N)C(C)C)[C@@H](C)O)C(=O)N[C@@H](CCCCN)C(=O)N[C@@H](C)C(=O)N[C@@H](C)C(=O)N[C@@H](C)C(=O)O [FFFFF.51] |  |  | Solubility [1]: Clear |
| QAYNALTL [GGGGG.41] |  | Clear |  |
| IQSIYGGLPKVPAKPKEPTIPH [GGGGG.23] |  | Clear |  |
| CC(C)C[C@H](NC(=O)[C@@H](NC(=O)[C@H](Cc1c[nH]c2ccccc12)NC(=O)[C@H](C)NC(=O)[C@H](C)NC(=O)[C@@H](NC(=O)[C@H](Cc1ccccc1)NC(=O)[C@H](CCCCN)NC(=O)[C@H](C)N)C(C)C)[C@@H](C)O)C(=O)N[C@@H](CCCCN)C(=O)N[C@@H](C)C(=O)N[C@@H](C)C(=O)N[C@@H](C)C(=O)O [GGGGG.51] |  | Clear |  |
| RRACGARTL [DDDDD.37] | Clear |  |  |
| RSTTKSPGPSRHSKSPASTSSVN [FFFFF.21] |  |  | Solubility [1]: Clear |
| VDLKFPASVPTGAQDLISKL [GGGGG.25] |  | Clear |  |
| AVVSYVVADMKEMLPRS [DDDDD.25] | Clear |  |  |
| TVDMLQCLRFPGLALPHTRAPSPLG [GGGGG.35] |  | Clear |  |
| SPRVAPGSAPPWPALRSLLH [GGGGG.1] |  | Clear |  |
| ARPEAQSRSSPTLES [DDDDD.12] | Clear |  |  |
| LDRQHVQHQLLVILKELRK [GGGGG.34] |  | Clear |  |
| SAPGSSRLAAV [GGGGG.36] |  | Clear |  |
| RVGDLSPKQKEALAKPEA [GGGGG.27] |  | Clear |  |
| WLPELPSLPSNGDPPAICE [DDDDD.15] | Clear |  |  |
| GQLFPYRARIEIKNKF [DDDDD.27] | Clear |  |  |
| RPGEDPSLHGIVKEQL [GGGGG.10] |  | Clear |  |
| MSYELKCAQELSQKQDG [GGGGG.31] |  | Clear |  |
| SAPGSSRLAA [GGGGG.46] |  | Clear |  |
| HLINYQDDAELATHALPELTKLLNDEDPV [GGGGG.14] |  | Clear |  |
| NTSALPLVSL [DDDDD.41] | Clear |  |  |
| RDILELGGPEEDAASGTISKKD [DDDDD.30] | Clear |  |  |
| FLSPGQLLQEPRTSLLIINNT [FFFFF.20] |  |  | Solubility [1]: Cloudy |
| KVTNCFSV [DDDDD.33] | Clear |  |  |

Reference: patent publication US20230197192A1, “SELECTING NEOANTIGENS FOR PERSONALIZED CANCER VACCINE” (AMAZON TECHNOLOGIES, INC., priority 2020, published 2023)
